Results on two compounds are retold here after patent publication US8394990B2, “Phenylurea inhibitors of the enzyme SOAT-1 and pharmaceutical/cosmetic compositions comprised thereof” (Galderma Research & Development, priority 2007, dated 2013).

The assay deals with T1, enzyme ACAT-1 (Homo sapiens, UniProt P35610).
T1 construct: endogenous in cells; host or cells: HepG2
T1 sequence (P35610 1-550): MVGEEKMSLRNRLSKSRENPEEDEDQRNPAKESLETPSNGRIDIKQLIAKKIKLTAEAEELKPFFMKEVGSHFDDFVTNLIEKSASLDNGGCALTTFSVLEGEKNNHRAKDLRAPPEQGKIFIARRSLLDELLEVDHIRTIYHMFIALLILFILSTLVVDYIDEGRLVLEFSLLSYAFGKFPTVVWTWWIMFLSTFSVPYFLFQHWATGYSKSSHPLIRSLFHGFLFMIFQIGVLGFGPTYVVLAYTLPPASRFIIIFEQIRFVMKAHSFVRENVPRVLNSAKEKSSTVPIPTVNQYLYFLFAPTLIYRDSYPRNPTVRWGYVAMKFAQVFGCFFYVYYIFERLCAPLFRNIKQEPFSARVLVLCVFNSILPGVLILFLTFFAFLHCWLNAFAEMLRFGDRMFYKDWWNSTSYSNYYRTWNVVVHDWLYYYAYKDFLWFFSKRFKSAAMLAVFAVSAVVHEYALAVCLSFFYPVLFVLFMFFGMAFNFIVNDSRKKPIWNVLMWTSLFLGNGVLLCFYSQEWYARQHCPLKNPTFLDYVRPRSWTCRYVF
Kind of assay: NBD-cholesterol fluorescence test in HepG2 cells for inhibitory activity towards ACAT-1 (SOAT-1). Type of assay: cell-based. The note with it: NBD-cholesterol 1 μg/ml, incubation 6 hrs at 37° C., fluorescence excitation 490 nm, emission 540 nm. As for the experimental part:
The compounds (I) according to the invention, and the pharmaceutically acceptable salts, solvates and/or hydrates thereof, have inhibitory properties towards the enzyme SOAT-1. This inhibitory action on the enzyme SOAT-1 is measured according to a primary enzymatic test HepG2, as described below.
The compounds of formula (I) according to the invention were subjected to a test making it possible to evaluate their inhibitory activity towards the enzyme ACAT-1 inspired by the following publication: “Identification of ACAT1- and ACAT2-specific inhibitors using a novel, cell based fluorescence assay: individual ACAT uniqueness” J. lipid. Res (2004) vol 45, pages 378-386. The principle of this test is based on the use of NBD-cholesterol, an analogue of cholesterol whose fluorescence depends on its environment. When it is in a polar environment, it is weakly fluorescent, whereas in a non-polar environment it is strongly fluorescent. […]
The following method is applied: the HepG2 cells are incubated in the presence of NBD-cholesterol (1 μg/ml) and of the compound of formula (I) to be tested in transparent-bottomed black 96-well plates at a level of 30000 cells per well. […] After addition of 50 μl of lysis buffer (10 mM NaPO4, 1% lgepal), the plates are shaken for 5 mins and read in fluorescence (excitation 490 nm, emission 540 nm) on a FUSION instrument (Perkin Elmer).

As for `CC(C)c1cccc(C(C)C)c1NC(=O)NCC1(Nc2ccccc2I)CCCC1` [I.2, 1-(2,6-diisopropylphenyl)-3-[1-(2-iodophenylamino)-cyclopentylmethyl)-urea], it took 24.1 nM to reach half-maximal inhibition (IC50). This lies in the double-digit nanomolar range. For `CC(C)c1cccc(C(C)C)c1NC(=O)NCC1(Nc2ccccc2-c2ccccc2)CCCC1` [I.4, 1-[1-(biphenyl-2-ylamino)-cyclopentylmethyl]-3-(2,6-diisopropylphenyl)-urea] the value was 9.5 nM.
